Data published in patent EP1953147A1, “HETEROCYCLIC COMPOUND AND MEDICINAL APPLICATION THEREOF” (priority 2005, dated 2007).

System: ΔG/SEAP/HCV E1E2
Assay: Effect of test substance on cell infection with HCV pseudotype virus (SEAP reporter assay in HepG2 cells)
Assay type: cell-based
Details: Hepatitis C virus

Structure (SMILES) | IC50
COc1cc(C)cc(-c2nn(-c3cc(-c4cccnn4)ccc3C(F)(F)F)c(=O)c3c2CCC3)c1 [Example 1-4, 4-(3-methoxy-5-methyl-phenyl)-2-[5-(pyridazin-3-yl)-2-trifluoromethyl-phenyl]-2,5,6,7-tetrahydro-cyclopenta[d]pyridazin-1-one] | < 0.1 µM
COc1cc(OC)cc(-c2nn(-c3cc(N4CC[C@H](O)C4)ccc3N(C)C)c(=O)c3c2CCC3)c1 [Example 1-6, 4-(3,5-dimethoxy-phenyl)-2-[2-dimethylamino-5-((S)-3-hydroxy-pyrrolidin-1-yl)-phenyl]-2,5,6,7-tetrahydro-cyclopenta[d]pyridazin-1-one] | 0.1 to 10 µM
COc1cc(OC)cc(-c2nn(-c3cccc(N4CC[C@H](O)C4)n3)c(=O)c3c2CCC3)c1 [Example 1-7, 4-(3,5-dimethoxy-phenyl)-2-[6-((S)-3-hydroxy-pyrrolidin-1-yl)-pyridin-2-yl]-2,5,6,7-tetrahydro-cyclopenta[d]pyridazin-1-one] | 0.1 to 10 µM
COC(=O)c1ccc(C(F)(F)F)c(-n2nc(-c3cc(OC)cc(OC)c3)c3c(c2=O)CCC3)c1 [Example 1-9, methyl 3-[4-(3,5-dimethoxy-phenyl)-1-oxo-1,5,6,7-tetrahydro-cyclopenta[d]pyridazin-2-yl]-4-trifluoromethyl-benzoate] | < 0.1 µM
COc1cc(OC)cc(-c2nn(-c3cc(C(=O)O)ccc3C(F)(F)F)c(=O)c3c2CCC3)c1 [Example 1-10, 3-[4-(3,5-dimethoxy-phenyl)-1-oxo-1,5,6,7-tetrahydro-cyclopenta[d]pyridazin-2-yl]-4-trifluoromethyl-benzoic acid] | 0.1 to 10 µM
CNC(=O)c1ccc(C(F)(F)F)c(-n2nc(-c3cc(OC)cc(OC)c3)c3c(c2=O)CCC3)c1 [Example 1-11, 3-[4-(3,5-dimethoxy-phenyl)-1-oxo-1,5,6,7-tetrahydro-cyclopenta[d]pyridazin-2-yl]-N-methyl-4-trifluoromethyl-benzamide] | < 0.1 µM
COc1cc(OC)cc(-c2nn(-c3cc(F)ccc3C(F)(F)F)c(=O)c3c2CCC3)c1 [Example 1-12, 4-(3,5-dimethoxy-phenyl)-2-(5-fluoro-2-trifluoromethylphenyl)-2,5,6,7-tetrahydro-cyclopenta[d]pyridazin-1-one] | 0.1 to 10 µM
COc1cc(OC)cc(-c2nn(-c3cc(OCCCO)ccc3C(F)(F)F)c(=O)c3c2CCC3)c1 [Example 1-13, 4-(3,5-dimethoxy-phenyl)-2-[5-(3-hydroxy-propoxy)-2-trifluoromethyl-phenyl]-2,5,6,7-tetrahydro-cyclopenta[d]pyridazin-1-one] | < 0.1 µM
COc1cc(OC)cc(-c2nn(-c3cc(N4CC[C@H](O)C4)ccc3OC)c(=O)c3c2CCC3)c1 [Example 1-15, 4-(3,5-dimethoxy-phenyl)-2-[5-((S)-3-hydroxy-pyrrolidin-1-yl)-2-methoxy-phenyl]-2,5,6,7-tetrahydro-cyclopenta[d]pyridazin-1-one] | 0.1 to 10 µM
O=c1c2c(c(-c3cccs3)nn1-c1cc(N3CC[C@H](O)C3)ccc1C(F)(F)F)CCC2 [Example 1-17, 2-[5-((S)-3-hydroxy-pyrrolidin-1-yl)-2-trifluoromethylphenyl]-4-(thiophen-2-yl)-2,5,6,7-tetrahydro-cyclopenta[d]pyridazin-1-one] | < 0.1 µM
O=c1c2c(c(C3=CCCC3)nn1-c1cc(N3CC[C@H](O)C3)ccc1C(F)(F)F)CCC2 [Example 1-18, 4-(cyclopent-1-enyl)-2-[5-((S)-3-hydroxy-pyrrolidin-1-yl)-2-trifluoromethyl-phenyl]-2,5,6,7-tetrahydro-cyclopenta[d]pyridazin-1-one] | 0.1 to 10 µM
O=c1c2c(c(C3CCCC3)nn1-c1cc(N3CC[C@H](O)C3)ccc1C(F)(F)F)CCC2 [Example 1-19, 4-cyclopentyl-2-[5-((S)-3-hydroxy-pyrrolidin-1-yl)-2-trifluoromethyl-phenyl]-2,5,6,7-tetrahydro-cyclopenta[d]pyridazin-1-one] | 0.1 to 10 µM
Cc1cc(-c2nn(-c3cc(N4CC(CO)C4)ccc3C(F)(F)F)c(=O)c3c2CCN3CCO)ccc1F [Example 1-23, 4-(4-fluoro-3-methyl-phenyl)-1-(2-hydroxy-ethyl)-6-[5-(3-hydroxymethyl-azetidin-1-yl)-2-trifluoromethylphenyl]-1,2,3,6-tetrahydro-pyrrolo[2,3-d]pyridazin-7-one] | < 0.1 µM
CC(=O)N[C@@H]1CCN(c2ccc(C(F)(F)F)c(-n3nc(-c4cc(C)cc(C)c4)c4c(c3=O)N(CC(N)=O)CC4)c2)C1 [Example 1-27, {6-[5-((R)-3-acetylamino-pyrrolidin-1-yl)-2-trifluoromethyl-phenyl]-4-(3,5-dimethyl-phenyl)-7-oxo-2,3,6,7-tetrahydro-pyrrolo[2,3-d]pyridazin-1-yl}-acetamide] | < 0.1 µM
COc1cncc(-c2nn(-c3cc(N4CC[C@H](O)C4)ccc3C(F)(F)F)c(=O)c3c2CCN3C(N)=O)c1 [Example 1-29, 6-[5-((S)-3-hydroxy-pyrrolidin-1-yl)-2-trifluoromethylphenyl]-4-(5-methoxy-pyridin-3-yl)-7-oxo-2,3,6,7-tetrahydro-pyrrolo[2,3-d]pyridazine-1-carboxamide] | < 0.1 µM
Cc1cc(C)cc(-c2nn(-c3cc(N4CC[C@H](O)C4)ccc3C(F)(F)F)c(=O)c3c2CC(C)N3)c1 (stereo partly drawn) [Example 1-33, 4-(3,5-dimethyl-phenyl)-6-[5-((S)-3-hydroxy-pyrrolidin-1-yl)-2-trifluoromethyl-phenyl]-2-methyl-1,2,3,6-tetrahydro-pyrrolo[2,3-d]pyridazin-7-one] | < 0.1 µM
COc1cc(OC)cc(-c2nn(-c3cc(N4CC[C@H](O)C4)ccc3C(F)(F)F)c(=O)c3c2OCC3)c1 [Example 1-35, 7-(3,5-dimethoxy-phenyl)-5-[5-((S)-3-hydroxy-pyrrolidin-1-yl)-2-trifluoromethyl-phenyl]-3,5-dihydro-2H-furo[2,3-d]pyridazin-4-one] | < 0.1 µM
COc1cc(OC)cc(-c2nn(-c3cc(N4CC[C@H](O)C4)ccc3C(F)(F)F)c(=O)c3c2SCC3)c1 [Example 1-37, 7-(3,5-dimethoxy-phenyl)-5-[5-((S)-3-hydroxy-pyrrolidin-1-yl)-2-trifluoromethyl-phenyl]-3,5-dihydro-2H-thieno[2,3-d]pyridazin-4-one] | < 0.1 µM
Cc1cc(-c2cnco2)cc(-c2nn(-c3cc(N4CC[C@H](O)C4)ccc3C(F)(F)F)c(=O)c3c2CCCN3)c1 [Example 1-38, 7-[5-((S)-3-hydroxy-pyrrolidin-1-yl)-2-trifluoromethylphenyl]-5-[3-methyl-5-(oxazol-5-yl)-phenyl]-1,3,4,7-tetrahydro-2H-pyrido[2,3-d]pyridazin-8-one] | < 0.1 µM
COc1cc(OC)cc(-c2nn(-c3cc(N4CC[C@H](O)C4)ccc3C(F)(F)F)c(=O)c3c2CCCN3CCO)c1 [Example 1-39, 5-(3,5-dimethoxy-phenyl)-1-(2-hydroxy-ethyl)-7-[5-((S)-3-hydroxy-pyrrolidin-1-yl)-2-trifluoromethylphenyl]-1,3,4,7-tetrahydro-2H-pyrido[2,3-d]pyridazin-8-one] | < 0.1 µM
COc1cc(OC)cc(-c2nn(-c3cc(N4CC(CO)C4)ccc3C(F)(F)F)c(=O)c3c2CCCN3CCO)c1 [Example 1-40, 5-(3,5-dimethoxy-phenyl)-1-(2-hydroxy-ethyl)-7-[5-(3-hydroxymethyl-azetidin-1-yl)-2-trifluoromethylphenyl]-1,3,4,7-tetrahydro-2H-pyrido[2,3-d]pyridazin-8-one] | < 0.1 µM
